The source of these data is patent publication US20250195513A1, “DEGRADATION OF IRAK4 BY CONJUGATION OF IRAK4 INHIBITORS WITH E3 LIGASE LIGAND AND METHODS OF USE” (BeiGene, Ltd., priority 2022, published 2025).

This test deals with T1, IRAK4 (Homo sapiens, UniProt Q9NWZ3).
T1 construct: endogenous in cells; host or cells: Karpas299
T1 sequence (Q9NWZ3 1-460): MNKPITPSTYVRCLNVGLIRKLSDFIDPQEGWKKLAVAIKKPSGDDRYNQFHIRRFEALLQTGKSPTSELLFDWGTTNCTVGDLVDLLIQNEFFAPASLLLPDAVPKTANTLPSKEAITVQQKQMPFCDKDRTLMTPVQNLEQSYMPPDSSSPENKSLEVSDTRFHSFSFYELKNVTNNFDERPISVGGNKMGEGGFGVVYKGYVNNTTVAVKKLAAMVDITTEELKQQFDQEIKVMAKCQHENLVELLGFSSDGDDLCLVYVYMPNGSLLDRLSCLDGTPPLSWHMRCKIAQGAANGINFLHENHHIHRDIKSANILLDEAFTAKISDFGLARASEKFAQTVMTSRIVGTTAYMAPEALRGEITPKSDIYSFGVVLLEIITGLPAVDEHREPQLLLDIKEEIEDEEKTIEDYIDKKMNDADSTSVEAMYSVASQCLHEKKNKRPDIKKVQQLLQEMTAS
Put plainly: IRAK4 Degradation Assay (Karpas299, HTRF/TR-FRET). Format: cell-based. In a few lines:
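Compound potency as DC50 (IC50) came from four-parameter fits of percent IRAK4 degradation. IRAK4 was measured by HTRF (665/620 nm) in lysates of Karpas299 cells seeded at 0.2 million per well. Cells had been treated with compound dilutions for 5 or 24 h.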
(In general: In TR-FRET formats the signal depends on donor and acceptor labels being close together.)

Where [1] appears, read: Karpas-299 cells, 24 h treatment, maximum percentage of degradation, read-out: IRAK4 in Karpas-299 (24 h) Dmax (%).
Setting [2] is: Karpas-299 cells, 24 h treatment, read-out: IRAK4 in Karpas-299 (24 h) DC50.
The mark [3] stands for this setting: Degradation (Karpas-299), comparison table, Linker Type A, read-out: Compound (Linker Type A) DC50.
[4] abbreviates: Degradation (Karpas-299), comparison table, Linker Type A, read-out: Compound (Linker Type A) Dmax (%).

Where two headings read alike, the source gives them in different places. Some results are limits rather than exact numbers.

A word on the Dmax: it is the largest share of the target that was removed. The term DC50 denotes the concentration at which degradation of the target reaches its halfway point. For the molecule `N#Cc1cnn2c(C(=O)Nc3cc4cn([C@H]5CC[C@H](N6CCN(C(=O)C7CN(c8cc(F)c([C@H]9CCC(=O)NC9=O)c(F)c8)C7)CC6)CC5)nc4c4c3OC(F)(F)O4)ccc2c1` [Example 384, 3-cyano-N-(2-((1r,4r)-4-(4-(1-(4-((R)-2,6-dioxopiperidin-3-yl)-3,5-difluorophenyl)azetidine-3-carbonyl)piperazin-1-yl)cyclohexyl)-7,7-difluoro-2H-[1,3]dioxolo[4,5-g]indazol-5-yl)pyrrolo[1,2-b]pyridazine-7-carboxamide], the Dmax under setting [1] came to 97%. In addition, the DC50 under setting [2] was 2.2 nM.

Take `O=C1CC[C@H](c2c(F)cc(N3CC(C(=O)N4CCN(c5ccc(-n6cc(NC(=O)c7coc(-c8ccnc(NCC(F)(F)F)c8)n7)c(C(F)F)n6)cn5)CC4)C3)cc2F)C(=O)N1` [Example 29]: the Dmax by setting is: (Karpas-299 cells, 5 h treatment, maximum percentage of degradation, read-out: IRAK4 in Karpas-299 (5 h) Dmax (%)) 76%; under setting [1], 96%. The DC50 worked out at 162 nM (Karpas-299 cells, 5 h treatment, read-out: IRAK4 in Karpas-299 (5 h) DC50) and 6.9 nM under setting [2].

In the case of `O=C1CC[C@H](c2c(F)cc(CCN3CCN(C[C@H]4CC[C@H](n5cc(NC(=O)c6coc(-c7ccnc(NCC(F)(F)F)c7)n6)c(C(F)F)n5)CC4)CC3)cc2F)C(=O)N1` [Example 1, N-(3-(difluoromethyl)-1-((1R,4r)-4-((4-(4-((R)-2,6-dioxopiperidin-3-yl)-3,5-difluorophenethyl)piperazin-1-yl)methyl)cyclohexyl)-1H-pyrazol-4-yl)-2-(2-((2,2,2-trifluoroethyl)amino)pyridin-4-yl)oxazole-4-carboxamide], the DC50 is, setting by setting: under setting [3], greater than 10000 nM; under setting [2], greater than 10000 nM. Also, the Dmax by setting is: under setting [4], 46%; under setting [1], 46%.

For `NC(=O)c1nn(-c2ccc(N3CCN(C(=O)[C@@H]4CCN(c5cc(F)c([C@H]6CCC(=O)NC6=O)c(F)c5)C4)CC3)nc2)cc1NC(=O)c1coc(-c2ccnc(NCC(F)(F)F)c2)n1` [Example 166, N-(3-carbamoyl-1-(6-(4-((R)-1-(4-((R)-2,6-dioxopiperidin-3-yl)-3,5-difluorophenyl)pyrrolidine-3-carbonyl)piperazin-1-yl)pyridin-3-yl)-1H-pyrazol-4-yl)-2-(2-((2,2,2-trifluoroethyl)amino)pyridin-4-yl)oxazole-4-carboxamide], the Dmax under setting [1] was found to be 96%. Besides, the DC50 under setting [2] turned out to be 2.6 nM.

With `O=C1CC[C@H](c2c(F)cc(N3CC(CN4CCN([C@H]5CC[C@H](n6cc(NC(=O)c7coc(-c8ccnc(NCC9CC9)c8)n7)c(C(F)F)n6)CC5)CC4)C3)cc2F)C(=O)N1` [Example 27, 2-(2-((cyclopropylmethyl)amino)pyridin-4-yl)-N-(3-(difluoromethyl)-1-((1r,4r)-4-(4-((1-(4-((R)-2,6-dioxopiperidin-3-yl)-3,5-difluorophenyl)azetidin-3-yl)methyl)piperazin-1-yl)cyclohexyl)-1H-pyrazol-4-yl)oxazole-4-carboxamide], under setting [1], the Dmax stood at 99%. Besides, under setting [2], the DC50 stood at 2.8 nM.

Take `O=C1CCN(c2ccc(N3CCC(N4CCN(C[C@H]5CC[C@H](n6cc(NC(=O)c7coc(-c8ccnc(NCC(F)(F)F)c8)n7)c(C(F)F)n6)CC5)CC4)CC3)cc2)C(=O)N1` [Example 2, N-(3-(difluoromethyl)-1-((1r,4r)-4-((4-(1-(4-(2,4-dioxotetrahydropyrimidin-1(2H)-yl)phenyl)piperidin-4-yl)piperazin-1-yl)methyl)cyclohexyl)-1H-pyrazol-4-yl)-2-(2-((2,2,2-trifluoroethyl)amino)pyridin-4-yl)oxazole-4-carboxamide]: the DC50 by setting is: under setting [3], greater than 10000 nM; under setting [2], greater than 10000 nM. Moreover, the Dmax was determined as 6.5% under setting [4] and 6.5% under setting [1].
